Entries after “also recorded” stand apart in the source; their conditions may differ.
Tests used:
Ts65Dn mice = settings: short-term administration of low doses; cited from earlier work
[1] = system: Ts65Dn mouse model of Down syndrome; experiment: Novel Object Recognition (NOR) task in Ts65Dn mice; format: in vivo; settings: 0.3 mg/kg IP daily for two weeks, NOR two weeks after treatment end
Protocol: In this case, the effect of the noncompetitive GABAA receptor antagonist pentylenetetrazole (PTZ) on cognitive function in the Ts65Dn mouse model of Down syndrome was assessed with the Novel Object Recognition (NOR) task.
(§1) The NOR task is based on the established finding that mice preferentially explore novel objects relative to remembered objects. The test consists of a training session and a testing session. During the training session, a mouse is allowed 15 minutes to explore freely a training chamber that contains two objects. The amount of time the mouse uses to explore each object is quantified using video monitoring. The mouse is removed from the training session for 24 hours, during which time one of the objects in the training chamber is replaced with a novel object. The mouse is returned to the training chamber for the testing session, during which video monitoring is again used to quantify the amount of time the mouse uses to explore each object.
Ts65Dn mice and wild-type (2N) controls were maintained on a 12:12 light:dark (LD) cycle. At three months of age, their NOR task performance was determined. The animals then received daily intraperitoneal (IP) injections of pentylenetetrazole (PTZ; 0.3 mg/kg) for two weeks (“treatment”). […] Two weeks after treatment end, the NOR task performance of all mice was again determined. […]

wild-type (2N) mice = experiment: Novel Object Recognition (NOR) task in wild-type (2N) mice; format: in vivo, mouse; settings: 0.3 mg/kg IP daily for two weeks, light cycle (FIG. 1 panel B)
Protocol: as §1
Ts65Dn mice and wild-type (2N) controls were maintained on a 12:12 light:dark (LD) cycle. At three months of age, their NOR task performance was determined. The animals then received daily intraperitoneal (IP) injections of pentylenetetrazole (PTZ; 0.3 mg/kg) for two weeks (“treatment”). A control group received vehicle control (saline; NaCl) only for the same duration. The IP injections occurred near the middle of the light phase or during the dark phase of a LD cycle. Two weeks after treatment end, the NOR task performance of all mice was again determined. All NOR tasks were performed during the light phase of a LD cycle. […]

In the case of C1CCc2nnnn2CC1 [PTZ, pentylenetetrazole], the cognitive function (Ts65Dn mice) is listed as “improve in a long-lasting manner”, the “hippocampal LTP induction” value (Ts65Dn mice) is listed as “improve in a long-lasting manner” and the “performance in the Novel Object Recognition (NOR) task” value ([1]; dark phase (wakefulness)) is listed as “some improvement relative to the saline-injected controls; also recorded: less effective in improving performance in the NOR task; also recorded: less effective in improving cognitive function”. The “performance in the Novel Object Recognition (NOR) task” value ([1]; middle of light phase (sleep)) was “spent a significantly larger proportion of time of the testing session exploring the novel object; also recorded: normalizes performance in the Novel Object Recognition (NOR) task; also recorded: can improve cognition” and the “time spent exploring objects in NOR task” value (wild-type (2N) mice) was “more time on the new object during the testing session”.

For picrotoxin [PTX], the cognitive function (Ts65Dn mice) is listed as “improve in a long-lasting manner” and the “hippocampal LTP induction” value (Ts65Dn mice) is listed as “improve in a long-lasting manner”.

For CC(C)(C)[C@]1(O)CC2OC(=O)CC23C(=O)OC2OC(=O)[C@H](O)C231 (stereo partly drawn) [BB, bilobalide], the cognitive function (Ts65Dn mice) is listed as “improve in a long-lasting manner” and the “hippocampal LTP induction” value (Ts65Dn mice) is listed as “improve in a long-lasting manner”.

Reference: patent US9789119B2, “Cognitive function” (priority 2010, dated 2017)
